Assay results published in patent publication US11590108B2, “Pharmaceutical compositions for combination therapy” (Genfit, priority 2017, dated 2023).
Where two headings read alike, the source gives them in different places.

Columns and labels:
[1] = cited from earlier work
NASH with liver fibrosis = conditions: cited from earlier work
TGFβ1-induced hHSC = assay: α-SMA ELISA in TGFβ1-activated human primary hepatic stellate cells (in vitro model of hepatic fibrogenesis); format: cell-based
Method: Serum-deprived HSC were preincubated for 1 hour with Elafibranor (A), Cenicriviroc (B), or Bezafibrate (PPAR pan α/γ/δ) before the activation with the profibrogenic cytokine TGFβ1 (1 ng/ml).
After 48 hours of incubation, the expression of α-SMA was measured by ELISA.
The obtained values were transformed into percentage inhibition over TGFβ1 control. Data are presented as mean (quadruplicates)±standard deviation (SD). Statistical analyses were performed by one-way ANOVA followed by Bonferroni post-hoc tests, using Sigma Plot 11.0 software. [*: p<0.05; **: p<0.01; ***: p<0.001 (comparison versus TGFβ1 1 ng/mL group)]. The curve fitting and the calculation of half maximal inhibitory concentration (IC50) were performed with XLFit software 5.3.1.3.
The human primary hepatic stellate cells (hHSC; Innoprot) were cultured in STeCM medium (ScienCell cat #5301) that was supplemented with 2% fetal bovine serum (FBS, ScienCell cat #0010), 1% penicillin/streptomycin (ScienCell cat #0503) and stellate cell growth supplement (SteCGS; ScienCell cat #5352). Cell-culture flasks were coated with Poly-L Lysine (Sigma cat #P4707) for a better adherence.
For these experiments, a checkerboard matrix was generated. […]
The level of α-SMA was measured using a Sandwich ELISA. […]

CDFF-fed mice = assay: Chronic CDFF diet fibrosing NASH mouse model (8 weeks); format: in vivo, C57Bl/6J mice; conditions: Elafibranor 3 mg/kg/day, CVC 10 mg/kg/day or both
Method: The preventive effects of Elafibranor alone, CVC alone and their combination were assessed in a fibrosing NASH model of mice fed a CDAA+2% cholesterol+30% Milk fat diet and High Fructose Corn Syrup 55 (55% fructose/45% glucose for a final concentration of 42 g/L) in drinking water (Mells et al J Nutr Biochem 2015). 5-6 weeks old male C57Bl/6J mice were fed a control (CSAA) diet (n=4), CDFF diet (n=12), or CDFF diet supplemented with Elafibranor 3 mg/kg/day, CVC 10 mg/kg/day or combined drugs (Elafibranor 3 mg/kg/day combined to CVC 10 mg/kg/day) (n=8 per group) for 8 weeks.
The body weight, the food and water intake were monitored twice per week. On the last day of treatment, plasma samples were obtained from retro-orbital blood sampling and mice were sacrificed after a 6 h-fasting period. The liver was rapidly excised for biochemical and histological analyses. All animal procedures were performed according to standard protocols and in accordance with the standard recommendations for the proper care and use of laboratory animals.
A technician blinded to the source of each liver specimen performed histological examinations. Virtual slides were generated using the Pannoramic 250 scanner from 3D Histech. For each animal, a score summarizing the main histological lesions of NASH was attributed according to the NASH Clinical Research Network (Kleiner 2005, Brunt 1999). Briefly, steatosis, lobular inflammation and hepatocyte ballooning were scored. The NAFLD Activity Score (NAS score) was established for each individual as the unweighted sum of the steatosis (0-3), lobular inflammation (0-3) and the ballooning (0-2) injury grading.
Alanine aminotransferase (ALT) and aspartate aminotransferase (AST) concentrations were measured in plasma using the Randox kit for Daytona automate (Randox cat #AL 3801 and AS 3804, respectively). Plasma cytokeratin 18-M30, a surrogate marker of apoptosis, was measured using the Mouse Cytokeratin 18-M30 ELISA Kit (CUSABIO cat #CSB-E14265m), according to the manufacturer's recommendations. […]
Quantitative PCR was then carried out using the CFX96 Touch™ Real-Time PCR Detection System (Biorad). […]
Expression levels were normalized using the expression of GAPDH gene as a housekeeping gene of reference in samples. […] Expression levels were determined using the standard curve equation for both the housekeeping gene and the target gene (taking into account the specific PCR efficiency of each target gene).
To achieve this aim, NASH was induced by feeding C57Bl/6J mice with a choline-deficient L-amino-acid-defined-diet supplemented with 2% cholesterol and 30% milk fat, and high fructose corn syrup in drinking water (CDFF diet). […] NASH development was evaluated by histology, liver function tests, and biochemical and molecular analyses.

[2] = CVC 150 mg orally once daily, one year

Row | Structure (SMILES) | solubility ([1]; 99.5% ethanol) | solubility ([1]; acetonitrile, 1-octanol, tetrahydrofuran) | solubility ([1]; aqueous solution at pH 3) | solubility ([1]; aqueous solution from pH 1 to 2) | solubility ([1]; aqueous solution from pH 4 to 13 and in water) | solubility ([1]; ethyl acetate and diethylether) | solubility ([1]; glacial acetic acid, methanol, benzyl alcohol, dimethylsulfoxide, N,N-dimethylformamide) | solubility ([1]; pyridine and acetic anhydride) | fibrosis as compared to placebo (NASH with liver fibrosis; [2]) | primary outcome (minimum 2-point improvement in NAS with at least 1-point reduction in lobular inflammation or hepatocellular ballooning) (NASH with liver fibrosis; [2]) | efficacy on NASH-induced fibrosis (NASH with liver fibrosis; recent phase 2B study) | antifibrotic activity (α-SMA) (TGFβ1-induced hHSC; 5 μM alone (FIG. 2C)) | antifibrotic effect as single agent (α-SMA) (TGFβ1-induced hHSC; hHSC, TGFβ1 1 ng/ml, 48 h, all doses (FIG. 1B, 1C)) | NAS score (disease activity) (CDFF-fed mice; 8 weeks (FIG. 4A)) | plasma CK18 concentration (CDFF-fed mice; 8 weeks (FIG. 4B)) | plasma AST concentration (CDFF-fed mice; 8 weeks (FIG. 4C)) | hepatic expression of genes related to inflammation, tissue remodeling and fibrogenesis (CDFF-fed mice; 8 weeks, qPCR (FIG. 5))
1 | CCCCOCCOc1ccc(-c2ccc3c(c2)C=C(C(=O)Nc2ccc([S@@+]([O-])Cc4cncn4CCC)cc2)CCCN3CC(C)C)cc1.CS(=O)(=O)O [CVC mesylate, (S)-8-[4-(2-Butoxyethoxy)phenyl]-1-isobutyl-N-[4-[[(1-propyl-1H-imidazol-5-yl)methyl]sulfinyl]phenyl]-1,2,3,4-tetrahydro-1-benzazocine-5-carboxamide monomethanesulfonoate] | sparingly soluble | slightly soluble | sparingly soluble | freely soluble | practically insoluble | practically insoluble | freely soluble | soluble | – | – | – | – | – | – | – | – | –
2 | CCCCOCCOc1ccc(-c2ccc3c(c2)/C=C(/C(=O)Nc2ccc([S@@+]([O-])Cc4cncn4CCC)cc2)CCCN3CC(C)C)cc1 [CVC, (S,E)-8-(4-(2-Butoxyethoxy)phenyl)-1-(2-methylpropyl)-N-(4-(((1-propyl-1H-imidazol-5-yl)methyl)sulfinyl)phenyl)-1,2,3,4-tetrahydrobenzo[b]azocine-5-carboxamide] | – | – | – | – | – | – | – | – | decrease of fibrosis in certain proportion of patients | not met | shown efficacy | does not show any antifibrotic activity | did not show a significant effect | no effect | no effect | no effect | no effect
